Assay results as given in US20230322822A1, “ARYL PHOSPHOROUS OXIDE COMPOUNDS AND USE THEREOF” (Chengdu Di'ao Jiuhong Pharmaceutical Factory, priority 2020, published 2023).
Where two headings read alike, the source gives them in different places.

Tests used:
EGFR-Del19 = EGFR-Del19 (Homo sapiens, UniProt P00533); test: Enzymatic activity test (ADP-Glo) EGFR-Del19; assay type: biochemical; conditions: kinase
In short: (§1)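 Each EGFR mutant was preincubated with compound, Poly(Glu4,Tyr1) and Tris-HCl pH 7.5 buffer (MgCl2, DTT, BSA) for 15 min at 23 °C. ATP was then added for 60 min at 23 °C. ADP-Glo luminescence gave ATP consumption, and IC50 came from a 4-parameter logistic fit.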

EGFR-T790M/Del19 = EGFR-T790M/Del19 (Homo sapiens, UniProt P00533, T790M, form not given); test: Enzymatic activity test (ADP-Glo) EGFR-T790M/Del19; assay type: biochemical; conditions: kinase
In short: as §1

[1] = tested on: PC9 cells expressing EGFR-T790M/Del19; test: Cell anti-proliferation test 2 (SRB), PC9 EGFR-T790M/Del19; assay type: cell-based; conditions: Homo sapiens, read-out: EGFR-T790M/Del19 GI50
Ba/F3-EML-4-ALK-L1196M = test: Cell anti-proliferation test 3 (CTG), Ba/F3-EML-4-ALK-L1196M; assay type: cell-based; conditions: Ba/F3 EML4-ALK-L1196M, 72 h, BaF3 cells, Day 3
[2] = tested on: BaF3 EML-4-ALK-L1196M cells; test: In-vivo pharmacodynamic study, transplanted tumor model of BaF3 EML-4-ALK-L1196M cells in nude mice; set-up: species or system BALB/c nude mice; conditions: for Effect on tumor growth (in words): compound 2 50 mg/kg, compound 6 60 mg/kg, compound 14 80 mg/kg
Method: The models used in this test were subcutaneous transplanted tumor models of engineered BaF3 EML-4-ALK-L1196M cells in BALB/c nude mice. The engineered BaF3 cells were cultured in vitro suspension. […] Passages were treated twice a week. When the cell number reached requirement, the cells were collected, counted and inoculated. 0.2 mL (10^6) of cells (added with matrigel, 1:1 by volume) were subcutaneously inoculated in the right back of each mouse, and divided into groups for dosing with 6 mice per group when the mean tumor volume reached 128 mm^3.
Administration mode and frequency: oral gavage was carried out with an administration volume of 10 mL/kg, and the model group was administered with the same volume of solvent. The administration was once per day and continuously carried out for 14 days. The dose of compound 2 was 50 mg/kg, the dose of compound 6 was 60 mg/kg, and the dose of compound 14 was 80 mg/kg.
General conditions such as spirit, activity, food intake and the like of the mice were observed every day, and the weight was measured thrice every week; the short diameter (a) and the long diameter (b) of each mouse tumor were measured thrice a week with a vernier caliper, and the tumor volume was calculated according to the formula (a^2×b)/2. The Relative Tumor Volume (RTV) was calculated from the measured tumor volume, wherein RTV=Vt/V0, wherein V0 was the tumor volume at random grouping (i.e., d0) and Vt was the tumor volume at each measurement (i.e., dn). The relative tumor proliferation rate of the evaluation index of the anti-tumor activity was calculated according to the following formula: relative tumor proliferation rate T/C (%): […]
(Note: TRTV: treatment group RTV; CRTV: model control group RTV. According to the therapeutic effect evaluation standard in the Technical Guidelines for Non-clinical Research of Cytotoxic Anti-tumor Drugs Issued by National Medical Products Administration of China, the value (T/C %≤40%) was effective).

[3] = tested on: Ba/F3 cells expressing EGFR-WT; test: Cell anti-proliferation test 1 (CTG), BaF3 EGFR-WT; conditions: Mus musculus, BaF3, 72 h, read-out: EGFR-WT IC50
[4] = tested on: Ba/F3 cells expressing EGFR-T790M/Del19; test: Cell anti-proliferation test 1 (CTG), BaF3 EGFR-T790M/Del19; conditions: Mus musculus, BaF3, 72 h, read-out: EGFR-T790M/Del19 IC50
[5] = tested on: Ba/F3 cells expressing EGFR-T790M/L858R; test: Cell anti-proliferation test 1 (CTG), BaF3 EGFR-T790M/L858R; conditions: Mus musculus, BaF3, 72 h, read-out: EGFR-T790M/L858R IC50
[6] = tested on: Ba/F3 cells expressing EGFR-C797S/T790M/L858R; test: Cell anti-proliferation test 1 (CTG), BaF3 EGFR-C797S/T790M/L858R; conditions: Mus musculus, BaF3, 72 h, read-out: EGFR-C797S/T790M/L858R IC50
[7] = tested on: Ba/F3 cells expressing EGFR-C797S/T790M/Del19; test: Cell anti-proliferation test 1 (CTG), BaF3 EGFR-C797S/T790M/Del19; conditions: Mus musculus, BaF3, 72 h, read-out: EGFR-C797S/T790M/Del19 IC50
[8] = 50 mg/kg oral gavage once per day
[9] = 60 mg/kg oral gavage once per day
[10] = 80 mg/kg oral gavage once per day

Sequence of EGFR-Del19 (P00533 25-1210 limits assumed): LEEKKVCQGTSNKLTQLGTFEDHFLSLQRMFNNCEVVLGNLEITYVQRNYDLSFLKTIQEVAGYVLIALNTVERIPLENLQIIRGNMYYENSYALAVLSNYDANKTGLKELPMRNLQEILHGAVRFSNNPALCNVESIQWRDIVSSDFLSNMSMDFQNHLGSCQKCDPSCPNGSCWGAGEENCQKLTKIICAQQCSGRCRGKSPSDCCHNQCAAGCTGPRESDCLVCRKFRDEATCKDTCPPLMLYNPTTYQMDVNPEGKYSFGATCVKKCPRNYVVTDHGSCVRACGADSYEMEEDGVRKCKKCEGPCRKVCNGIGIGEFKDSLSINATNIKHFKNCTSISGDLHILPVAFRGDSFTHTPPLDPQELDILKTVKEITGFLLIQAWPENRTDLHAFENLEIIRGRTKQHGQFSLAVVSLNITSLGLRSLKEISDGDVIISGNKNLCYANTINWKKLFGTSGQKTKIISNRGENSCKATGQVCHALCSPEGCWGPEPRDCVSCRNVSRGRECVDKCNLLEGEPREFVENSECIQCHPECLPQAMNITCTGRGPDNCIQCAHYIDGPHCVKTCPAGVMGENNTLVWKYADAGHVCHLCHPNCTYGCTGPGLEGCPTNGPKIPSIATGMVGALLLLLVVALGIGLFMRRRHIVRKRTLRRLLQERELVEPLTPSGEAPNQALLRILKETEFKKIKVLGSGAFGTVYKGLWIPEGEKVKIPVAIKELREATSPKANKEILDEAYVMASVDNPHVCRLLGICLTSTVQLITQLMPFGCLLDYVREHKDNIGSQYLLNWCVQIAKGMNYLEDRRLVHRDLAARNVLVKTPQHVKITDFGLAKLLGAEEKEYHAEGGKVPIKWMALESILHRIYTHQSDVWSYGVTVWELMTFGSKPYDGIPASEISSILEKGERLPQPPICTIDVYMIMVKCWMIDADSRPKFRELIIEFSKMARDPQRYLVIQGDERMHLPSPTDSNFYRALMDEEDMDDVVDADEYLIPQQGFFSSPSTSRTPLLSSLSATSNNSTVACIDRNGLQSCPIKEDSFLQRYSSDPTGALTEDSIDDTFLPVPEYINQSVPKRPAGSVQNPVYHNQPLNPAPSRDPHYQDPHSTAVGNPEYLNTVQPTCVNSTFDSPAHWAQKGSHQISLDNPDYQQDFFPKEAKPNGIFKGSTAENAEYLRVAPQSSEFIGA
Sequence of EGFR-T790M/Del19 (P00533 25-1210 T790M limits assumed): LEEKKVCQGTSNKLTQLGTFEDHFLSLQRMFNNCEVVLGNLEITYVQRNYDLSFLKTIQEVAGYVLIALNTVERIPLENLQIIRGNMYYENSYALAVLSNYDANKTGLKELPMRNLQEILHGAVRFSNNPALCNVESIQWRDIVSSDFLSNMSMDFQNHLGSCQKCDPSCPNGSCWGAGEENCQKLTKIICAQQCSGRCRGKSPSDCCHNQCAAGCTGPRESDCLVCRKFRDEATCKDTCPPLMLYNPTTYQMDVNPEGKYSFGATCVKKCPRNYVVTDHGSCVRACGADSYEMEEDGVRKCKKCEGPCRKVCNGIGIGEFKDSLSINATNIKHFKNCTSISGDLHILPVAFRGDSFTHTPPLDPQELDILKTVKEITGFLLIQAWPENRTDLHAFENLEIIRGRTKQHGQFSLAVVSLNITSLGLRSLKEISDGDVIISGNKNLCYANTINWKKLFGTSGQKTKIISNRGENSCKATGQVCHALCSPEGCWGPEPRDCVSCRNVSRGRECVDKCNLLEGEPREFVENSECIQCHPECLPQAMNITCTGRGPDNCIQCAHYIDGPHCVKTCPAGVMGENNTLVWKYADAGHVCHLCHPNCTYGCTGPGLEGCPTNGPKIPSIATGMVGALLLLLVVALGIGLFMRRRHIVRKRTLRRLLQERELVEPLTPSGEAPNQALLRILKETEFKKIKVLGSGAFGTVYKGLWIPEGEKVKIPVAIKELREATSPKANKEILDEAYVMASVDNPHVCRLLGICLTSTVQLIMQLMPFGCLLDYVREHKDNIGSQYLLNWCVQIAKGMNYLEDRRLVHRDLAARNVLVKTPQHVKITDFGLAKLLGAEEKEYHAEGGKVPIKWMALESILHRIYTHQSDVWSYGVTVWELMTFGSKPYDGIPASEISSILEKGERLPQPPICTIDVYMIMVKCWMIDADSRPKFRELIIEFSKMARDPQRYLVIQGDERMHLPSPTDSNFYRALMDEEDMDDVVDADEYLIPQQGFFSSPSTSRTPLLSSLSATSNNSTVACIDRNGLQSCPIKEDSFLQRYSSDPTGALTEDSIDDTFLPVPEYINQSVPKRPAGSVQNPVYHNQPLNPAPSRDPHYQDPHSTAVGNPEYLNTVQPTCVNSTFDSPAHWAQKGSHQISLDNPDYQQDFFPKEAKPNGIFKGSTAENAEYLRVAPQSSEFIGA

`COc1cc(N2CCC(N3CCN(C)CC3)CC2)c(C)cc1Nc1ncc(Br)c(Nc2ccc(C)cc2P(C)(C)=O)n1` [Compound 2] was tested. Which IC50 (EGFR-Del19) did it give?
Its IC50 is 23.5 nM.

And the IC50 (EGFR-T790M/Del19)?
The IC50 was 3.9 nM.

What about the GI50 ([1]; PC-9, 72 h) of the same molecule?
The GI50 was 12.8 nM.

What about the IC50 (Ba/F3-EML-4-ALK-L1196M) of the same molecule?
The IC50 was 13.1 nM.

What about the “Tumor volume Day 0” value [2, 8] of the same molecule?
The value was 129 mm^3.

What about the “Relative tumor proliferation rate T/C Day 2” value [2, 8] of the same molecule?
Its value is 24.19%.

What about the “Tumor volume Day 2” value [2, 8] of the same molecule?
The value was 55 mm^3.

And the “Relative tumor proliferation rate T/C Day 5” value [2, 8]?
The value was 2.61%.

What about the “Tumor volume Day 5” value [2, 8] of the same molecule?
The value was 13 mm^3.

And the “Relative tumor proliferation rate T/C Day 7” value [2, 8]?
The value was 0.74%.

And the “Tumor volume Day 7” value [2, 8]?
The value was 7 mm^3.

What about the “Relative tumor proliferation rate T/C Day 9” value [2, 8] of the same molecule?
Its value is 0.68%.

And the “Tumor volume Day 9” value [2, 8]?
Its value is 10 mm^3.

And the “Relative tumor proliferation rate T/C Day 12” value [2, 8]?
The value was 0.89%.

What about the “Tumor volume Day 12” value [2, 8] of the same molecule?
Its value is 17 mm^3.

What about the “Relative tumor proliferation rate T/C Day 14” value [2, 8] of the same molecule?
Its value is 0.91%.

And the “Tumor volume Day 14” value [2, 8]?
Its value is 20 mm^3.

And the IC50 [3]?
The IC50 was 1260 nM.

And the IC50 [4]?
The IC50 was 6.5 nM.

And the IC50 [5]?
Its IC50 is 22.5 nM.

And the IC50 [6]?
The IC50 was 64.1 nM.

And the IC50 [7]?
The IC50 was 16.5 nM.

Which results are given for `COc1cc(N2CCC(N(C)C)CC2)c(C)cc1Nc1ncc(Br)c(Nc2ccc(C)cc2P(C)(C)=O)n1` [Compound 6]?
IC50 (EGFR-Del19): 29.9 nM; IC50 (EGFR-T790M/Del19): 1.1 nM; GI50 ([1]; PC-9, PC9 cells, SRB, 72 hours): 10.7 nM; IC50 (Ba/F3-EML-4-ALK-L1196M): 7.4 nM; Tumor volume Day 0 [2, 9]: 128 mm^3; Relative tumor proliferation rate T/C Day 2 [2, 9]: 16.51%; Tumor volume Day 2 [2, 9]: 37 mm^3; Relative tumor proliferation rate T/C Day 5 [2, 9]: 5.28%; Tumor volume Day 5 [2, 9]: 25 mm^3; Relative tumor proliferation rate T/C Day 7 [2, 9]: 3.01%; Tumor volume Day 7 [2, 9]: 25 mm^3; Relative tumor proliferation rate T/C Day 9 [2, 9]: 1.59%; Tumor volume Day 9 [2, 9]: 21 mm^3; Relative tumor proliferation rate T/C Day 12 [2, 9]: 1.88%; Tumor volume Day 12 [2, 9]: 33 mm^3; Relative tumor proliferation rate T/C Day 14 [2, 9]: 1.99%; Tumor volume Day 14 [2, 9]: 39 mm^3; Effect on tumor growth (in words) [2]: obviously inhibit the tumor growth; IC50 [3]: 1230 nM; IC50 [4]: 10.5 nM; IC50 [5]: 29.3 nM; IC50 [6]: 74.6 nM; IC50 [7]: 19.6 nM

How did the IC50 (EGFR-Del19) turn out when `COc1cc(N2CCC(N3CCN(C)CC3)CC2)c(Cl)cc1Nc1ncc(Br)c(Nc2ccc(C)cc2P(C)(C)=O)n1` [Compound 14] was run?
The IC50 was 16.6 nM.

What about the IC50 (EGFR-T790M/Del19) of the same molecule?
The IC50 was 3.6 nM.

What about the GI50 ([1]; PC-9, PC9 cells, SRB, 72 hours) of the same molecule?
The GI50 was 8.5 nM.

What about the IC50 (Ba/F3-EML-4-ALK-L1196M) of the same molecule?
The IC50 was 13.1 nM.

And the “Tumor volume Day 0” value [2, 10]?
Its value is 128 mm^3.

And the “Relative tumor proliferation rate T/C Day 2” value [2, 10]?
Its value is 35.71%.

What about the “Tumor volume Day 2” value [2, 10] of the same molecule?
Its value is 84 mm^3.

What about the “Relative tumor proliferation rate T/C Day 5” value [2, 10] of the same molecule?
Its value is 11.26%.

What about the “Tumor volume Day 5” value [2, 10] of the same molecule?
The value was 55 mm^3.

What about the “Relative tumor proliferation rate T/C Day 7” value [2, 10] of the same molecule?
Its value is 3.99%.

What about the “Tumor volume Day 7” value [2, 10] of the same molecule?
The value was 37 mm^3.

And the “Relative tumor proliferation rate T/C Day 9” value [2, 10]?
Its value is 3.95%.

And the “Tumor volume Day 9” value [2, 10]?
Its value is 58 mm^3.

And the “Relative tumor proliferation rate T/C Day 12” value [2, 10]?
Its value is 5.24%.

What about the “Tumor volume Day 12” value [2, 10] of the same molecule?
Its value is 101 mm^3.

What about the “Relative tumor proliferation rate T/C Day 14” value [2, 10] of the same molecule?
Its value is 6.34%.

And the “Tumor volume Day 14” value [2, 10]?
The value was 132 mm^3.

What about the “Effect on tumor growth (in words)” value [2] of the same molecule?
Its value is “obviously inhibit the tumor growth”.

What about the IC50 [3] of the same molecule?
Its IC50 is 620 nM.

What about the IC50 [4] of the same molecule?
The IC50 was 2.3 nM.

What about the IC50 [5] of the same molecule?
The IC50 was 17.5 nM.

And the IC50 [6]?
The IC50 was 76.4 nM.

And the IC50 [7]?
Its IC50 is 18.9 nM.
